This is an account of results in PMC9081329, “Pharmacokinetics, Mass Balance, Excretion, and Tissue Distribution of Plasmalogen Precursor PPI-1011” (Frontiers in Cell and Developmental Biology, 2022).

Values joined by “and” are separate entries in the source; they are usually repeats but may differ in a detail not shown here. Equal values may be shown once.

A short description of the data set: Mass balance and excretion study, single oral dose 100 mg/kg. The class given is in vivo, Sprague-Dawley rats. The procedure: Four male rats were administered a single oral dose of [^14C]PPI-1011 at 100 mg/kg (200 μCi/kg). Feces, urine, and the cage rinse samples were collected at pre-determined times up to 168 h post-dose (HPD). The expired air was collected using a carbon dioxide trapping apparatus equipped with airflow apparatus. Expired [^14C]CO2 was collected for two of the four dosed animals for 24 h after the dose in a solution of ethanolamine:2-methoxyethanol (1:3, v/v) in two traps. Rats were sacrificed by overdose of CO2 and each cage was rinsed with 25% ethanol in water (>50 ml) at the end of the study. The cage rinse sample and the expired [^14C]CO2 was stored at 4°C.
Diluted dose solutions, plasma, urine, and cage rinse were analyzed in duplicate by LSC, as described above. The expired CO2 was analyzed the same day it was collected by mixing a 1 ml aliquot of the carbon dioxide absorbents with 5 ml of Hionic-Fluor for radioactivity concentrations with LSC. Feces samples were homogenized in 5-fold volume of purified water then duplicate fecal homogenate aliquots were transferred to Combusto Cones and combusted with a Sample Oxidizer (Model A307, Perkin Elmer) equipped with an Oximate 80 Robotic Automatic Samples. The [^14C]CO2 generated by the combustion was also collected in Carbo Sorb E and radioactivity was determined with PermaFluor as the scintillant using a Tri-Carb LSC.

As to `CC/C=C\C/C=C\C/C=C\C/C=C\C/C=C\C/C=C\CCC(=O)O[C@H](CO[14CH2]CCCCCCCCCCCCCCC)COC(=O)CCCCC1CCSS1` (some centres unmarked) [[^14C]PPI-1011], the “Dose recovered in feces” value (168 h collection period, single oral 100 mg/kg) was 42.51 ± 7.16%. Also, the “Total dose excreted in urine and feces” value (between 24 and 48 h) was “approximately 6%”. Moreover, the “Additional excretion in urine and feces” value (between 48 and 168 h) is recorded as < 3%. Moreover, the “Compound-associated radioactivity absorbed by the body” value (single oral 100 mg/kg) was “over 50%”. Where the note is “up to day seven, single oral 100 mg/kg, 100 mg/kg”, the “Dose found in urine” value was 2.40 ± 0.59% and < 2.5%. Further, the “Dosed radioactivity recovered in urine and feces including cage rinses” value (within 168 h collection period, single oral 100 mg/kg) was 45.10 ± 7.34%. Further, where the note is “within the first 24 h”, the “Compound-associated radioactivity excreted in the feces” value is given as “approximately 40%” and the “Compound-associated radioactivity excreted in the urine” value is ~2.5%.
